Test results as given in PubChem BioAssay AID2060892 (Molecular Pharmacology Branch, DTP, NCI, 2025).

Test system: HOP-62 complex spheroids with HUVEC/MSC, viability
Assay: Anticancer human tumor HOP-62 cell line growth inhibition [RAS];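 note: spheroids exposed to agents for seven days before readout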;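 for viability, T/C: 100% = DMSO vehicle control viability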
Conditions: for IC50: curve of first compound; for viability, T/C: stronger effect = lower value
Outline: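 Tumour cells grown as complex spheroids with HUVEC endothelial cells and mesenchymal stem cells, treated with RAS pathway inhibitor combinations. Each agent spans half-log steps from near clinical Cmax, or 10 microM where Cmax is unknown.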

CCc1c2c(nc3ccc(O)cc13)-c1cc3c(c(=O)n1C2)COC(=O)[C@]3(O)CC + C#Cc1c(F)ccc2cc(O)cc(-c3ncc4c(N5CC6CCC(C5)N6)nc(OCC56CCCN5CC(F)C6)nc4c3F)c12
IC50 (second compound 0.0316 µM): 1.14 nM | IC50 (second compound 0.1 µM): 1.31 nM | IC50 (second compound 0.316 µM): 1.19 nM | IC50 (second compound 1 µM): 1.23 nM | IC50 (second compound 3.16 µM): 0.972 nM | IC50 (second compound 10 µM): < 0.949 nM | viability, T/C (second compound 0.0316 µM, first compound 0.000949 µM): 56.3% | viability, T/C (second compound 0.0316 µM, first compound 0.003 µM): 16.6% | viability, T/C (second compound 0.0316 µM, first compound 0.00949 µM): 11.4% | viability, T/C (second compound 0.0316 µM, first compound 0.03 µM): 5.6% | viability, T/C (second compound 0.0316 µM, first compound 0.0949 µM): 3.66% | viability, T/C (second compound 0.0316 µM, first compound 0.3 µM): 2.78% | viability, T/C (second compound 0.1 µM, first compound 0.000949 µM): 62.9% | viability, T/C (second compound 0.1 µM, first compound 0.003 µM): 15.6% | viability, T/C (second compound 0.1 µM, first compound 0.00949 µM): 10.1% | viability, T/C (second compound 0.1 µM, first compound 0.03 µM): 4.19% | viability, T/C (second compound 0.1 µM, first compound 0.0949 µM): 5.31% | viability, T/C (second compound 0.1 µM, first compound 0.3 µM): 3.12% | viability, T/C (second compound 0.316 µM, first compound 0.000949 µM): 59.1% | viability, T/C (second compound 0.316 µM, first compound 0.003 µM): 13.8% | viability, T/C (second compound 0.316 µM, first compound 0.00949 µM): 8.76% | viability, T/C (second compound 0.316 µM, first compound 0.03 µM): 5.75% | viability, T/C (second compound 0.316 µM, first compound 0.0949 µM): 3.69% | viability, T/C (second compound 0.316 µM, first compound 0.3 µM): 3.17% | viability, T/C (second compound 1 µM, first compound 0.000949 µM): 60.8% | viability, T/C (second compound 1 µM, first compound 0.003 µM): 12.7% | viability, T/C (second compound 1 µM, first compound 0.00949 µM): 7.48% | viability, T/C (second compound 1 µM, first compound 0.03 µM): 3.47% | viability, T/C (second compound 1 µM, first compound 0.0949 µM): 3.07% | viability, T/C (second compound 1 µM, first compound 0.3 µM): 2.06% | viability, T/C (second compound 3.16 µM, first compound 0.000949 µM): 51.1% | viability, T/C (second compound 3.16 µM, first compound 0.003 µM): 10.9% | viability, T/C (second compound 3.16 µM, first compound 0.00949 µM): 6.45% | viability, T/C (second compound 3.16 µM, first compound 0.03 µM): 3.95% | viability, T/C (second compound 3.16 µM, first compound 0.0949 µM): 2.84% | viability, T/C (second compound 3.16 µM, first compound 0.3 µM): 2.67% | viability, T/C (second compound 10 µM, first compound 0.000949 µM): 26.9% | viability, T/C (second compound 10 µM, first compound 0.003 µM): 11.7% | viability, T/C (second compound 10 µM, first compound 0.00949 µM): 8.96% | viability, T/C (second compound 10 µM, first compound 0.03 µM): 4.94% | viability, T/C (second compound 10 µM, first compound 0.0949 µM): 5.28% | viability, T/C (second compound 10 µM, first compound 0.3 µM): 3.97%
